One experiment has as its target T1, NAMPT (Homo sapiens, UniProt P43490).
T1 construct: His tag; host or cells: E. coli
Description: Biochemical inhibition assay: NAMPT enzymatic reaction, NMN quantified by mass spectrometry. The conditions noted are these: read-out: Biochem IC50. In outline:
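Inhibition of E. coli-expressed His-tagged human NAMPT, measured as NMN formation by mass spectrometry after a 30 min room-temperature reaction containing 1 μM NAM, 100 μM PRPP and 2.5 mM ATP.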

The test system of another experiment is A2780 cells. Briefly: In-vitro cell proliferation assay (SRB), A2780 cells. The experiment is classed as cell-based. The conditions noted are these: Homo sapiens, A2780, 72 h, A2780 cells, 72 hours, read-out: A2780 IC50. In outline:
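Viable cells measured by SRB staining after 6% TCA fixation, absorbance 570 nm. Media-only background subtracted; % inhibition derived at two compound concentrations.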

pIC50: −log10 of the molar value. Read-outs that look alike come from different tables or passages of the source.

The results in this text go back to patent publication US12336981B2, “Compounds and compositions for the inhibition of NAMPT” (Valo Health, Inc., priority 2010, dated 2025).

One may read the pIC50 as the IC50 on a negative log10 scale, so that one unit is a factor of ten.

T1 sequence (P43490 whole entry): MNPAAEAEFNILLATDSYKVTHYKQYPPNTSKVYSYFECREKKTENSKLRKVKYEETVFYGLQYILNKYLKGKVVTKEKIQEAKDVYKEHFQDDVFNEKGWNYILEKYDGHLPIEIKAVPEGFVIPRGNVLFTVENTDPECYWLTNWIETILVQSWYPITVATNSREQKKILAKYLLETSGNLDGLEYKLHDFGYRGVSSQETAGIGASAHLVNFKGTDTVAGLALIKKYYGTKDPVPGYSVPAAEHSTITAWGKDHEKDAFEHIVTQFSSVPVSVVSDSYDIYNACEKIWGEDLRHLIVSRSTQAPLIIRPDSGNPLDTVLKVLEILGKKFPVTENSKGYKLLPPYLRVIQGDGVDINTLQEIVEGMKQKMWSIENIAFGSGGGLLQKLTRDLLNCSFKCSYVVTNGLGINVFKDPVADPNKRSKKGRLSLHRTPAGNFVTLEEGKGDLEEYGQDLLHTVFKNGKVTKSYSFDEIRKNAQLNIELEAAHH

On to `CCN(C)c1ncc(S(=O)(=O)c2ccc(CNC(=O)c3cnc4[nH]ncc4c3)cc2)s1` [N-[(4-{2-[ethyl(methyl)amino]-1,3-thiazole-5-sulfonyl}phenyl)methyl]-1H-pyrazolo[3,4-b]pyridine-5-carboxamide], for which the results for the negative-log IC50 (pIC50) at NAMPT (NAMPT enzymatic assay) and in the experiment with A2780 cells (SRB) were 8.44 and 8.82, respectively.

As for `CCN(C)c1ncc(S(=O)(=O)c2ccc(CNC(=O)c3cc4ccncc4o3)cc2)s1` [N-[(4-{2-[ethyl(methyl)amino]-1,3-thiazole-5-sulfonyl}phenyl)methyl]furo[2,3-c]pyridine-2-carboxamide], the pIC50 on NAMPT (NAMPT enzymatic assay) is 8.32; with A2780 cells (SRB), 9.05.

Take `CCN(C)c1ncc(S(=O)(=O)c2ccc(CNC(=O)c3ccc4nccn4c3)cc2)s1` [N-[(4-{2-[ethyl(methyl)amino]-1,3-thiazole-5-sulfonyl}phenyl)methyl]imidazo[1,2-a]pyridine-6-carboxamide]: the negative-log IC50 (pIC50) on NAMPT (NAMPT enzymatic assay) was 8.48; in the experiment with A2780 cells (SRB) it was 9.40.

For `CCN(C)c1ncc(S(=O)(=O)c2ccc(CNC(=O)c3cnc4nccn4c3)cc2)s1` [N-[(4-{2-[ethyl(methyl)amino]-1,3-thiazole-5-sulfonyl}phenyl)methyl]imidazo[1,2-a]pyrimidine-6-carboxamide], the negative logarithm of the IC50 (pIC50) at NAMPT (NAMPT enzymatic assay) is 8.74; in the experiment with A2780 cells (SRB) it was 9.05.

As to `CCN(C)c1ncc(S(=O)(=O)c2ccc(CNC(=O)c3cc4ccncc4s3)cc2)s1` [N-[(4-{2-[ethyl(methyl)amino]-1,3-thiazole-5-sulfonyl}phenyl)methyl]thieno[2,3-c]pyridine-2-carboxamide], the negative-log IC50 (pIC50) on NAMPT (NAMPT enzymatic assay) is 8.54; in the experiment with A2780 cells (SRB), 8.92.

`O=C(NCc1ccc(S(=O)(=O)c2cnc3n2CCCCC3)cc1)c1cnc2[nH]ncc2c1` [N-[(4-{5H,6H,7H,8H,9H-imidazo[1,2-a]azepine-3-sulfonyl}phenyl)methyl]-1H-pyrazolo[3,4-b]pyridine-5-carboxamide]: the negative-log IC50 (pIC50) was 7.50 at NAMPT (NAMPT enzymatic assay) and 7.91 in the experiment on A2780 cells (SRB).

On to `O=C(NCc1ccc(S(=O)(=O)c2cnc3n2CCCCC3)cc1)c1cc2ccncc2o1` [N-[(4-{5H,6H,7H,8H,9H-imidazo[1,2-a]azepine-3-sulfonyl}phenyl)methyl]furo[2,3-c]pyridine-2-carboxamide], for which the pIC50 at NAMPT (NAMPT enzymatic assay) was 8.22; in the experiment on A2780 cells (SRB) it was 8.24.

On to `O=C(NCc1ccc(S(=O)(=O)c2cnc3n2CCCCC3)cc1)c1cnc2nccn2c1` [N-[(4-{5H,6H,7H,8H,9H-imidazo[1,2-a]azepine-3-sulfonyl}phenyl)methyl]imidazo[1,2-a]pyrimidine-6-carboxamide], for which the pIC50 on NAMPT (NAMPT enzymatic assay) was 8.96; with A2780 cells (SRB), 7.54.

Take `O=C(NCc1ccc(S(=O)(=O)c2cnc3n2CCCCC3)cc1)c1cc2ccncc2s1` [N-[(4-{5H,6H,7H,8H,9H-imidazo[1,2-a]azepine-3-sulfonyl}phenyl)methyl]thieno[2,3-c]pyridine-2-carboxamide]: the pIC50 on NAMPT (NAMPT enzymatic assay) is 8.52; in the experiment on A2780 cells (SRB) it was 9.10.

Regarding `O=C(NCc1ccc(S(=O)(=O)c2cnc3ccc(Cl)cn23)cc1)c1cnc2[nH]ncc2c1` [N-[(4-{6-chloroimidazo[1,2-a]pyridine-3-sulfonyl}phenyl)methyl]-1H-pyrazolo[3,4-b]pyridine-5-carboxamide], the results for the pIC50 on NAMPT (NAMPT enzymatic assay) and in the experiment with A2780 cells (SRB) were 8.48 and 9.10, respectively.

Consider `O=C(NCc1ccc(S(=O)(=O)c2cnc3ccc(Cl)cn23)cc1)c1cc2cnccc2[nH]1` [N-[(4-{6-chloroimidazo[1,2-a]pyridine-3-sulfonyl}phenyl)methyl]-1H-pyrrolo[3,2-c]pyridine-2-carboxamide], for which the negative-log IC50 (pIC50) is 7.88 at NAMPT (NAMPT enzymatic assay) and 8.85 in the experiment with A2780 cells (SRB).

For `O=C(NCc1ccc(S(=O)(=O)c2cnc3ccc(Cl)cn23)cc1)c1cc2ccncc2o1` [N-[(4-{6-chloroimidazo[1,2-a]pyridine-3-sulfonyl}phenyl)methyl]furo[2,3-c]pyridine-2-carboxamide], the negative-log IC50 (pIC50) was 8.92 on NAMPT (NAMPT enzymatic assay) and 9.40 in the experiment on A2780 cells (SRB).

As for `O=C(NCc1ccc(S(=O)(=O)c2cnc3ccc(Cl)cn23)cc1)c1ccc2nccn2c1` [N-[(4-{6-chloroimidazo[1,2-a]pyridine-3-sulfonyl}phenyl)methyl]imidazo[1,2-a]pyridine-6-carboxamide], the pIC50 on NAMPT (NAMPT enzymatic assay) is 8.28; with A2780 cells (SRB), 9.40.

`O=C(NCc1ccc(S(=O)(=O)c2cnc3ccc(Cl)cn23)cc1)c1cnc2nccn2c1` [N-[(4-{6-chloroimidazo[1,2-a]pyridine-3-sulfonyl}phenyl)methyl]imidazo[1,2-a]pyrimidine-6-carboxamide]: the figures for the pIC50 on NAMPT (NAMPT enzymatic assay) and with A2780 cells (SRB) were 8.80 and 9.40, respectively.

Consider `O=C(NCc1ccc(S(=O)(=O)c2cnc3ccc(Cl)cn23)cc1)c1cc2ccncc2s1` [N-[(4-{6-chloroimidazo[1,2-a]pyridine-3-sulfonyl}phenyl)methyl]thieno[2,3-c]pyridine-2-carboxamide], for which the pIC50 on NAMPT (NAMPT enzymatic assay) is 8.92; in the experiment on A2780 cells (SRB), 9.40.

As to `O=C(NCc1ccc(S(=O)(=O)N2CC3CCC(C2)O3)cc1)c1cc2cnccc2[nH]1` [N-[(4-{8-oxa-3-azabicyclo[3.2.1]octane-3-sulfonyl}phenyl)methyl]-1H-pyrrolo[3,2-c]pyridine-2-carboxamide], the negative logarithm of the IC50 (pIC50) at NAMPT (NAMPT enzymatic reaction) was 8.10; in the experiment on A2780 cells (SRB assay) it was 8.52.

Regarding `O=C(NCc1ccc(S(=O)(=O)N2CC3CCC(C2)O3)cc1)c1ccc2nccn2c1` [N-[(4-{8-oxa-3-azabicyclo[3.2.1]octane-3-sulfonyl}phenyl)methyl]imidazo[1,2-a]pyridine-6-carboxamide], the pIC50 at NAMPT (NAMPT enzymatic reaction) is 8.40; in the experiment with A2780 cells (SRB assay) it was 8.52.

Consider `O=C(NCc1ccc(S(=O)(=O)N2CC3CCC(C2)O3)cc1)c1cc2ccncc2s1` [N-[(4-{8-oxa-3-azabicyclo[3.2.1]octane-3-sulfonyl}phenyl)methyl]thieno[2,3-c]pyridine-2-carboxamide], for which the negative-log IC50 (pIC50) at NAMPT (NAMPT enzymatic reaction) is 7.82; with A2780 cells (SRB assay) it was 8.52.

`O=C(NCc1ccc(S(=O)(=O)c2ccc(C(F)(F)F)cc2C(F)(F)F)cc1)c1cnc2[nH]ncc2c1` [N-[(4-{[2,4-bis(trifluoromethyl)benzene]sulfonyl}phenyl)methyl]-1H-pyrazolo[3,4-b]pyridine-5-carboxamide]: the values for the negative logarithm of the IC50 (pIC50) at NAMPT (NAMPT enzymatic assay) and in the experiment with A2780 cells (SRB) were 7.09 and 7.25, respectively.

With `O=C(NCc1ccc(S(=O)(=O)c2ccc(C(F)(F)F)cc2C(F)(F)F)cc1)c1cc2ccncc2s1` [N-[(4-{[2,4-bis(trifluoromethyl)benzene]sulfonyl}phenyl)methyl]thieno[2,3-c]pyridine-2-carboxamide], the pIC50 on NAMPT (NAMPT enzymatic assay) was 7.67; in the experiment with A2780 cells (SRB) it was 8.37.

On to `O=C(NCc1ccc(S(=O)(=O)c2ccc(C(F)(F)F)cc2OCC(F)(F)F)cc1)c1ccc2nccn2c1` [N-[(4-{[2-(2,2,2-trifluoroethoxy)-4-(trifluoromethyl)benzene]sulfonyl}phenyl)methyl]imidazo[1,2-a]pyridine-6-carboxamide], for which the negative logarithm of the IC50 (pIC50) at NAMPT (NAMPT enzymatic assay) is 8.15; in the experiment with A2780 cells (SRB) it was 8.92.

As to `O=C(NCc1ccc(S(=O)(=O)Nc2ccccc2CCO)cc1)c1cc2cnccc2[nH]1` [N-[(4-{[2-(2-hydroxyethyl)phenyl]sulfamoyl}phenyl)methyl]-1H-pyrrolo[3,2-c]pyridine-2-carboxamide], the negative-log IC50 (pIC50) is 7.73 on NAMPT (NAMPT enzymatic assay) and 7.70 with A2780 cells (SRB).

For `O=C(NCc1ccc(S(=O)(=O)c2cc(C(F)(F)F)ccc2OCc2ccccc2)cc1)c1cnc2[nH]ncc2c1` [N-[(4-{[2-(benzyloxy)-5-(trifluoromethyl)benzene]sulfonyl}phenyl)methyl]-1H-pyrazolo[3,4-b]pyridine-5-carboxamide], the negative logarithm of the IC50 (pIC50) on NAMPT (NAMPT enzymatic assay) and in the experiment with A2780 cells (SRB) was 6.00 to 7.00 each time.
